Patent publication US8003570B2, “Composition and method for killing nematodes and weeds in soils” (priority 2006, dated 2011)

Experiments:
Assay type in all cases: in vivo
nematodes [1] = test: Example 1 field trial in Florida: soil nematode population and root infection; conditions: methyl bromide 400 pounds per acre
Experimental: (§1) Field trials were conducted in Florida where tomatoes are grown under a plastic mulch and an irrigation system, called “T” tapes, which is used to irrigate the crop under the plastic mulch. Design of the experiment were three rows of a standard methyl bromide applications as the smallest replication. Four such sets of three rows were used as replicated applications. There was a zero treatment. Methyl bromide gas used at a 400 pounds per acre basis as the control and the compositions A, B, C. and D were used at a 5 liters per acre basis. Composition A was injected through the “T” tape one day after methyl bromide was injected.
(§2) The plants growing in the middle rows only of these three rows, were used to collect data. In the middle rows, 14 plants were randomly selected for measuring. The height of the plants were collected at 30 days. Starting at fruit harvest, fruits collected from these 14 plants were cumulatively added to give the total production data. At the end of harvest these plants were carefully dug up and roots carefully washed to weigh the total roots and also measure the degree of infection in the roots. Soil samples were also collected from the holes where the plants were dug up and analyzed for soil nematode population. Finally, all nut sedge plants that came through the plastic mulch in the entire 150-yard middle rows were counted as a “strike”, a degree of insufficient kill of the rhizomes.

nut sedge rhizomes [2] = test: Example II field trial: nut sedge strikes
Experimental: as §1, §2
(§3) In this experiment, methyl bromide was applied at full dose of 400 pounds per acre of the gas and the treatments used 200 pounds of methyl bromide per acre alone and with 5 liters of composition A per acre, 100 pounds of methyl bromide alone and with composition A at 5 liters per acre, 50 pounds of methyl bromide with 5 liters of composition A and the last treatment of 5 liters of composition A per acre by itself. Tomatoes were planted 20 days after methyl bromide was injected under the plastic mulch. Composition A was injected through the “T” tape one day after methyl bromide was injected. The design of Experiment II was the same as in Experiment I, and the data collected were as in the Experiment I. The results of this experiment are shown in Table II.

tomatoes [3] = test: Example 1 field trial in Florida, tomatoes under plastic mulch: plant height, production, root weight; conditions: methyl bromide 400 pounds per acre, compositions 5 liters per acre
Experimental: as §1, §2

tomatoes [4] = test: Example II field trial, methyl bromide dose reduction with or without composition A: tomato growth and production; conditions: M.B. 50 lbs. alone
nut sedge rhizomes [5] = test: Example 1 field trial in Florida: nut sedge strikes through plastic mulch; conditions: methyl bromide 400 pounds per acre
Experimental: as §1
The plants growing in the middle rows only of these three rows, were used to collect data. In the middle rows, 14 plants were randomly selected for measuring. The height of the plants were collected at 30 days. Starting at fruit harvest, fruits collected from these 14 plants were cumulatively added to give the total production data. […] Soil samples were also collected from the holes where the plants were dug up and analyzed for soil nematode population. Finally, all nut sedge plants that came through the plastic mulch in the entire 150-yard middle rows were counted as a “strike”, a degree of insufficient kill of the rhizomes.

tomatoes [6] = test: Example II field trial, methyl bromide dose reduction with or without composition A: tomato growth and production
Experimental: as §1, §2, §3

nematodes [7] = test: Example II field trial: soil nematode population and root infection
Experimental: as §1, §2, §3

Compound: CBr [Methyl Bromide, Methyl bromide]
- nematode control in the soil (nematodes [1]; Example 1 discussion): superior to compositions A, B, C and D
- Soil Nematode (nematodes [1]; soil at end of harvest, compositions 5 liters per acre): 700/10 gr
- Infection in Roots (nematodes [1]; tomato roots, end of harvest, compositions 5 liters per acre): zero
- Live nut sedge in 150 yards (nut sedge rhizomes [2]; M.B. 50 lbs. alone): 38 strikes
- Live nut sedge in 150 yards (nut sedge rhizomes [2]; M.B. 100 lbs. per acre alone): 28 strikes
- Live nut sedge in 150 yards (nut sedge rhizomes [2]; M.B. 200 lbs. per acre alone): 18 strikes
- Live nut sedge in 150 yards (nut sedge rhizomes [2]; M.B. 400 lbs per acre): 7 strikes
- Weight of Roots (tomatoes [3]; end of harvest): 165 gr.
- Height at 30 Days (tomatoes [3]): 2.6 feet
- Production Per Plant (tomatoes [3]): 16 lbs.
- Height at 30 Days (tomatoes [4]): 2 ft.
- Production Per Plant (tomatoes [4]): 4 lbs.
- Weight of Roots (tomatoes [4]): 60
- efficacy in controlling the weeds (nut sedge rhizomes [5]; Example 1 discussion): same efficacy in controlling the weeds as composition A
- Live nut sedge in 150 yards (nut sedge rhizomes [5]; shoots piercing plastic mulch in 150-yard middle rows, compositions 5 liters per acre): 12/150 strikes″.
- Height at 30 Days (tomatoes [6]; M.B. 100 lbs. per acre alone): 2.2 ft.
- Production Per Plant (tomatoes [6]; M.B. 100 lbs. per acre alone): 5.1 lbs.
- Weight of Roots (tomatoes [6]; M.B. 100 lbs. per acre alone): 90 gr.
- Height at 30 Days (tomatoes [6]; M.B. 200 lbs. per acre alone): 2.7 ft.
- Production Per Plant (tomatoes [6]; M.B. 200 lbs. per acre alone): 6.1 lbs.
- Weight of Roots (tomatoes [6]; M.B. 200 lbs. per acre alone): 120 gr.
- Height at 30 Days (tomatoes [6]; M.B. 400 lbs per acre): 3 ft.
- Production Per Plant (tomatoes [6]; M.B. 400 lbs per acre): 8.6 lbs.
- Weight of Roots (tomatoes [6]; M.B. 400 lbs per acre): 170 gr.
- Infection in Roots (nematodes [7]; M.B. 50 lbs. alone): high
- Soil Nematode (nematodes [7]; M.B. 50 lbs. alone): 16,000
- Infection in Roots (nematodes [7]; M.B. 100 lbs. per acre alone): high
- Soil Nematode (nematodes [7]; M.B. 100 lbs. per acre alone): 2200/10 gr.
- Infection in Roots (nematodes [7]; M.B. 200 lbs. per acre alone): slight
- Soil Nematode (nematodes [7]; M.B. 200 lbs. per acre alone): 1056/10 gr.
- Infection in Roots (nematodes [7]; M.B. 400 lbs per acre): zero
- Soil Nematode (nematodes [7]; M.B. 400 lbs per acre): zero
